Assay results from patent US12577242B2, “Pyrrolopyridine and imidazopyridine antiviral compounds” (KATHOLIEKE UNIVERSITEIT LEUVEN, priority 2020, dated 2026).

Assays:
[1] = system: Bovine viral diarrhea (BVD) virus; experiment: Anti-BVDV CPE inhibition assay in MDBK cells; conditions: for EC50: Bovine viral diarrhea virus isolates and strains, MDBK, in Bos taurus, 96 h; for SI (selectivity index, ratio of CC50 and EC50): CC50/EC50, MDBK cells, BVD virus
[2] = Cytotoxicity in MDBK cells (no BVD virus added); conditions: bovine, MDBK cells (Madin-Darby bovine kidney), no virus added

SMILES | EC50 [1] [nM] | SI (selectivity index, ratio of CC50 and EC50) [1] | CC50 at 4 days [2] [nM]
Cc1ccc2nc(Cn3ccc4nc(-c5ccccc5F)nc-4c3)[nH]c2c1 [CPD-36, 2-(2-fluorophenyl)-5-((6-methyl-1H-benzo[d]imidazol-2-yl)methyl)-5H-imidazo[4,5-c]pyridine] | 403 ± 129 | >124 | > 50000
Fc1ccc2nc(Cn3ccc4nc(-c5ccccc5F)nc-4c3)[nH]c2c1 [CPD-37, 5-((6-fluoro-1H-benzo[d]imidazol-2-yl)methyl)-2-(2-fluorophenyl)-5H-imidazo[4,5-c]pyridine] | 370 ± 74 | >135 | > 50000
Fc1ccccc1-c1nc2ccn(Cn3nnc4ccccc43)cc-2n1 [CPD-38, 1-((2-(2-fluorophenyl)-5H-imidazo[4,5-c]pyridin-5-yl)methyl)-1H-benzo[d][1,2,3]triazole] | 336 ± 103 | >149 | > 50000
Fc1cccc(-c2nc3ccn(Cc4cc(-c5cc(F)ccc5F)no4)cc-3n2)c1 [CPD-39, 3-(2,5-difluorophenyl)-5-((2-(3-fluorophenyl)-5H-imidazo[4,5-c]pyridin-5-yl)methyl)isoxazole] | 84 ± 8 | >595 | > 50000
Cc1ccc2nc(Cn3ccc4nc(-c5cc(OCCO)ccc5F)nc-4c3)sc2c1 [CPD-41, 2-(4-fluoro-3-(5-((6-methylbenzo[d]thiazol-2-yl)methyl)-5H-imidazo[4,5-c]pyridin-2-yl)phenoxy)ethan-1-ol] | 223 ± 143 | >224 | > 50000
OCCOc1ccc(F)c(-c2nc3ccn(Cc4cc(-c5cc(F)ccc5F)no4)cc-3n2)c1 [CPD-42, 2-(3-(5-((3-(2,5-difluorophenyl)isoxazol-5-yl)methyl)-5H-imidazo[4,5-c]pyridin-2-yl)-4-fluorophenoxy)ethan-1-ol] | 460 ± 48 | >109 | > 50000
N#Cc1ccc(-c2nc3ccn(Cc4cc(-c5cc(F)ccc5F)no4)cc-3n2)cc1 [CPD-43, 4-(5-((3-(2,5-difluorophenyl)isoxazol-5-yl)methyl)-5H-imidazo[4,5-c]pyridin-2-yl)benzonitrile] | 81 ± 8 | >617 | > 50000
CN(C)c1cccc(-c2nc3ccn(Cc4cc(-c5cc(F)ccc5F)no4)cc-3n2)c1 [CPD-44, 3-(5-((3-(2,5-difluorophenyl)isoxazol-5-yl)methyl)-5H-imidazo[4,5-c]pyridin-2-yl)-N,N-dimethylaniline] | 88 ± 17 | >568 | > 50000
Cc1ccc2nc(Cn3ccc4nc(-c5ccccc5CO)nc-4c3)sc2c1 [CPD-45, (2-(5-((6-methylbenzo[d]thiazol-2-yl)methyl)-5H-imidazo[4,5-c]pyridin-2-yl)phenyl)methanol] | 297 ± 107 | >168 | > 50000
OCc1ccccc1-c1nc2ccn(Cc3cc(-c4cc(F)ccc4F)no3)cc-2n1 [CPD-46, (2-(5-((3-(2,5-difluorophenyl)isoxazol-5-yl)methyl)-5H-imidazo[4,5-c]pyridin-2-yl)phenyl)methanol] | 465 ± 26 | >108 | > 50000
Cc1ccc(-c2nc3ccn(Cc4cc(-c5cc(F)ccc5F)no4)cc-3n2)s1 [CPD-47, 3-(2,5-difluorophenyl)-5-((2-(5-methylthiophen-2-yl)-5H-imidazo[4,5-c]pyridin-5-yl)methyl)isoxazole] | 341 ± 25 | 70 | 24000
Cc1cc(-c2nc3ccn(Cc4cc(-c5cc(F)ccc5F)no4)cc-3n2)cs1 [CPD-48, 3-(2,5-difluorophenyl)-5-((2-(5-methylthiophen-3-yl)-5H-imidazo[4,5-c]pyridin-5-yl)methyl)isoxazole] | 395 ± 22 | 68 | 27000
Cc1scc(-c2nc3ccn(Cc4cc(-c5cc(F)ccc5F)no4)cc-3n2)c1C [CPD-49, 3-(2,5-difluorophenyl)-5-((2-(4,5-dimethylthiophen-3-yl)-5H-imidazo[4,5-c]pyridin-5-yl)methyl)isoxazole] | 409 | 76 | 31000
Fc1ccc(OC(F)(F)F)cc1-c1cc2ccn(Cn3nnc4ccccc43)cc-2n1 [Compound II, 1-({2-[2-fluoro-5-(trifluoromethoxy)phenyl]-6H-pyrrolo[2,3-c]pyridin-6-yl}methyl)-1H-benzotriazole] | 23 | 870 | 20000
OCCOc1ccc(F)c(-c2cc3ccn(Cn4nnc5ccccc54)cc-3n2)c1 [Compound III, 2-(3-{6-[(1H-benzotriazol-1-yl)methyl]-6H-pyrrolo[2,3-c]pyridin-2-yl}-4-fluorophenoxy)ethan-1-ol] | 19 ± 7 | 1158 | 22000
COc1ccccc1-c1cc2ccn(Cn3nnc4ccccc43)cc-2n1 [Compound IV, 1-{[2-(2-methoxyphenyl)-6H-pyrrolo[2,3-c]pyridin-6-yl]methyl}-1H-benzotriazole] | 8 ± 5 | 2750 | 22000
Cc1ccc2oc(Cn3ccc4cc(-c5ccccc5F)nc-4c3)nc2c1 [Compound IX, 2-{[2-(2-fluorophenyl)-6H-pyrrolo[2,3-c]pyridin-6-yl]methyl}-5-methyl-1,3-benzoxazole] | 1.2 ± 1.5 | 4167 | 5000
N#Cc1ccc(-c2cc3ccn(Cn4nnc5ccccc54)cc-3n2)cc1 [Compound VI, 4-{6-[(1H-benzotriazol-1-yl)methyl]-6H-pyrrolo[2,3-c]pyridin-2-yl}benzonitrile] | 16 | >3125 | > 50000
COc1ncccc1-c1cc2ccn(Cn3nnc4ccccc43)cc-2n1 [Compound VII, 1-{[2-(2-methoxypyridin-3-yl)-6H-pyrrolo[2,3-c]pyridin-6-yl]methyl}-1H-benzotriazole] | 16 ± 1 | 1375 | 22000
Cc1c(-c2cc3ccn(Cn4nnc5ccccc54)cc-3n2)cnn1C [Compound VIII, 1-[(2-(1,5-dimethyl-1H-pyrazol-4-yl)-6H-pyrrolo[2,3-c]pyridin-6-yl)methyl]-1H-benzotriazole] | 335 ± 80 | >149 | > 50000
COc1ncccc1-c1cc2ccn(Cc3nc4cc(C)ccc4o3)cc-2n1 [Compound X, 2-((2-(2-methoxypyridin-3-yl)-6H-pyrrolo[2,3-c]pyridin-6-yl)methyl)-5-methyl-1,3-benzoxazole] | 7 ± 4 | 571 | 4000
Cc1ccc2nc(Cn3ccc4cc(-c5ccccc5F)nc-4c3)sc2c1 [Compound XI, 2-{[2-(2-fluorophenyl)-6H-pyrrolo[2,3-c]pyridin-6-yl]methyl}-6-methyl-1,3-benzothiazole] | 8 | 500 | 4000
